{
  "source": "patent US20100249138A1",
  "about": "“MPZP: A SMALL MOLECULE CORTICOTROPIN-RELEASING FACTOR TYPE 1 RECEPTOR (CRF1) ANTOGONIST” (priority 2007, published 2010)",
  "key": {"[1]": {"test_system": "defensive burying model of active anxiety-like behavior", "conditions": "doses similar to 3.6-27.5 mg/kg; Fekete et al. 2003; cited from earlier work"}, "CRF1 receptors": {"target": "T1, CRF1 receptors (Rattus norvegicus, UniProt P35353)", "T1 sequence (P35353 24-415)": "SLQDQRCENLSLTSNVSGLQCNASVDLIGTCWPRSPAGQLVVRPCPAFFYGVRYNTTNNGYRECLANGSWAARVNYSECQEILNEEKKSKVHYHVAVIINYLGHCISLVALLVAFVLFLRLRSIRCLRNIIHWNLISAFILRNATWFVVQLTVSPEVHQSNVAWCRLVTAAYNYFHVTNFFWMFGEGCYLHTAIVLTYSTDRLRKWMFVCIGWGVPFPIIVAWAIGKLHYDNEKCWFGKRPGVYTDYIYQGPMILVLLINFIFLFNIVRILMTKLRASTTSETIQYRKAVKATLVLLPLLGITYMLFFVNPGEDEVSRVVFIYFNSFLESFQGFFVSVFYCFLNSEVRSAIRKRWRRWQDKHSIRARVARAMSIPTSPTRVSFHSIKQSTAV", "assay": "[125I]-Tyr0-sauvagine competition binding, rat cerebellar membrane homogenates", "design": "from tissue; host or cells: rat cerebellum, membrane homogenate", "conditions": "read-out: IC50, displacement of specific [125I]-Tyr0-sauvagine binding", "procedure": "Binding activity of MPZP was determined in a competition assay using […] (2200 Ci/mmol; Perkin Elmer, Waltham, Mass.) as the radioligand. Cerebellum was homogenized in homogenizing buffer (Dulbecco's phosphate-buffered saline [PBS]:1.5 mM KH2PO4, 8.1 mM Na2HPO4, 2.7 mM KCl, 138 mM NaCl, pH 7.2, supplemented with 10 mM MgCl2, 2 mM EGTA) using a Polytron (Dispersing and Mixing Technology, Kinematica, Littau-Lucerne, Switzerland) at setting 6 for 2×15 seconds on ice. The homogenate was centrifuged at 45,000×g for 20 minutes at 4° C. The pellet was resuspended and spun at 45,000×g for 20 minutes at 4° C. The final pellet was resuspended in assay buffer (homogenizing buffer supplemented with protease inhibitor; 1 tablet/10 ml; Sigma CAT#58829-20TAB, St. Louis, Mo., pH 7.4) using a Polytron.\nMed. Chem. (2000) 8:181-189], whose structural formula is shown below.\nTotal binding was determined using assay buffer in lieu of a CRF1 antagonist, and nonspecific binding was determined in the presence of 1 μM unlabeled sauvagine. The final radioligand concentration was 0.2 nM, and the reaction was incubated at room temperature for 2 hours. […] The pellet-containing tip was cut off and counted in an automated 10-detector gamma counter (MicroMedic Apex, ICN Biomedical, Costa Mesa, Calif.) at 80% efficiency. […]"}, "[2]": {"test_system": "precipitated-withdrawal induced anxiety-like behavior", "assay": "Defensive burying test during mecamylamine-precipitated nicotine withdrawal", "format": "in vivo, rat", "procedure": "Nicotine hydrogen tartrate salt (Sigma, Natick) was dissolved in saline at pH 7.4 and experimenter-administered via minipump or self-administered via indwelling jugular catheter. Doses are expressed as free base. Mecamylamine (Sigma; Natick, Mass.) was dissolved in saline and administered i.p. (1 ml/kg). The CRF1 antagonist (N,N-bis(2-methoxyethyl)-3-(4-methoxy-2-methylphenyl)-2,5-dimethyl-pyrazolo-[1,5α]pyrimidin-7-amine, or MPZP) was synthesized at The Scripps Research Institute by Dr. P. Wirshing, dissolved in 20% hydroxypropyl beta-cyclodextrin (Cavitron, Cargill) in isotonic saline at pH 4.5 and administered s.c. (2 ml/kg, 45 to 60 min before testing). Rat/human CRF was supplied by Dr. Jean Rivier, The Salk Institute. CRF was dissolved in 1× PBS (pH 7.4) and prepared fresh few minutes before intracerebral injection. The doses and time of injections were selected based on previous studies [Richardson et al., Program No. 783. 4 Neuroscience Meeting Planner. Atlanta, Ga.: Society for Neuroscience, OnlineI (2006); Specio et al., Program No. 777. 11 Neuroscience Meeting Planner. Washington, D.C.: Society for Neuroscience, Online (2004)].\nRats were subcutaneously implanted with osmotic minipumps delivering either saline (n=33) or nicotine (n=31) (3.16 mg/kg/day, free base, s.c.) as described above. After 14 days of pump exposure, testing was performed 5-8 hours into the dark cycle in a standard cage with 2 inches of bedding (wood shavings) along the bottom and a small hole centered in one side one inch above the bedding to accommodate the shock-probe. Rats were habituated (45 minutes) to the test cage for 2 days prior to testing. On the test day, mecamylamine or its vehicle were administered 30 minutes before behavioral testing, and the CRF1 antagonist or its vehicle were administered 45 minutes before behavioral testing (n=7-9 per group). On contact with the probe and shock delivery (using a Coulbourn precision shocker, 1.5 mA, AC, <1 s), verified by a startle response, the probe was deactivated. The latency and duration of probe-directed burying, rearing, resting, grooming, and freezing were measured from videotape over a 10 minutes period by an experimenter blind to the subject treatment condition using a computer program."}, "[3]": {"conditions": "nicotine pump, CRF1 antagonist + Mecamylamine"}, "[4]": {"conditions": "nicotine pump, CRF1 antagonist + Vehicle"}, "[5]": {"conditions": "saline pump, CRF1 antagonist + Mecamylamine"}, "[6]": {"conditions": "saline pump, CRF1 antagonist + Vehicle"}},
  "data": [
    {"smiles": "COCCN(CCOC)c1cc(C)nc2c(-c3ccc(OC)cc3C)c(C)nn12", "note": "[MPZP, N,N-bis(2-methoxyethyl)-3-(4-methoxy-2-methylphenyl)-2,5-dimethyl-pyrazolo[1,5-a]pyrimidin-7-amine]", "values": [
      {"measurement": "anxiety-like behavior in the defensive burying test", "setting": "[1]", "value": "reduced anxiety-like behavior"},
      {"measurement": "IC50", "setting": "CRF1 receptors", "value": 6.1, "unit": "nM"},
      {"measurement": "Burying", "setting": "[2]; [3]", "value": "115 ± 24", "unit": "s"},
      {"measurement": "Freezing", "setting": "[2]; [3]", "value": "7 ± 7", "unit": "s"},
      {"measurement": "Grooming", "setting": "[2]; [3]", "value": "38 ± 14", "unit": "s"},
      {"measurement": "Latency to bury", "setting": "[2]; [3]", "value": "82 ± 19", "unit": "s"},
      {"measurement": "Rearing", "setting": "[2]; [3]", "value": "126 ± 21", "unit": "s"},
      {"measurement": "Resting", "setting": "[2]; [3]", "value": "68 ± 26", "unit": "s"},
      {"measurement": "Burying", "setting": "[2]; [4]", "value": "85 ± 42", "unit": "s"},
      {"measurement": "Freezing", "setting": "[2]; [4]", "value": "13 ± 7", "unit": "s"},
      {"measurement": "Grooming", "setting": "[2]; [4]", "value": "48 ± 18", "unit": "s"},
      {"measurement": "Latency to bury", "setting": "[2]; [4]", "value": "130 ± 36", "unit": "s"},
      {"measurement": "Rearing", "setting": "[2]; [4]", "value": "181 ± 21", "unit": "s"},
      {"measurement": "Resting", "setting": "[2]; [4]", "value": "24 ± 11", "unit": "s"},
      {"measurement": "anxiogenic-like effect of mecamylamine to increase burying", "setting": "[2]; nicotine-dependent rats, MPZP 4 mg/kg s.c. pretreatment, mecamylamine 1.5 mg/kg i.p.", "value": "blocked"},
      {"measurement": "Burying", "setting": "[2]; [5]", "value": "143 ± 20", "unit": "s"},
      {"measurement": "Freezing", "setting": "[2]; [5]", "value": "5 ± 3", "unit": "s"},
      {"measurement": "Grooming", "setting": "[2]; [5]", "value": "15 ± 5", "unit": "s"},
      {"measurement": "Latency to bury", "setting": "[2]; [5]", "value": "80 ± 18", "unit": "s"},
      {"measurement": "Rearing", "setting": "[2]; [5]", "value": "139 ± 7", "unit": "s"},
      {"measurement": "Resting", "setting": "[2]; [5]", "value": "51 ± 22", "unit": "s"},
      {"measurement": "Burying", "setting": "[2]; [6]", "value": "145 ± 34", "unit": "s"},
      {"measurement": "Freezing", "setting": "[2]; [6]", "value": "9 ± 8", "unit": "s"},
      {"measurement": "Grooming", "setting": "[2]; [6]", "value": "26 ± 12", "unit": "s"},
      {"measurement": "Latency to bury", "setting": "[2]; [6]", "value": "104 ± 29", "unit": "s"},
      {"measurement": "Rearing", "setting": "[2]; [6]", "value": "183 ± 19", "unit": "s"},
      {"measurement": "Resting", "setting": "[2]; [6]", "value": "11 ± 7", "unit": "s"}
    ]}
  ]
}
